Assay results published in patent US8545851B2, “Composition for improving inflammatory disease using ABH antigens” (SNU R&DB Foundation, priority 2009, dated 2013).

tested on: B antigen expression in HaCaT cells harboring B antigen; assay: Effect of ABH antigen-constituting monosaccharides and mixtures on B antigen expression, Western blotting; format: cell-based; conditions: HaCaT cells, 0.1, 1 and 10 μM, 24 hours
Method: HaCaT cells harboring B antigen was treated respectively with FGG and FGGN mixture and FG (Fucose:Galactose=1:1, H-antigen composition) mixture which compose A, B, and H antigen, and also glucose, galactose, fucose, N-acetylgalactosamine and N-acetylglucosamine which are monosaccharides that constitute A, B, and H antigen at different concentrations of 0.1, 1, and 10 μM for 24 hours. Western blotting was performed to investigate the expression of B antigen. As a result, the expression of B antigen was increased in every case above (FIG. 9).

| SMILES | expression of B antigen |
| --- | --- |
| CC(=O)N[C@H]1C(O)O[C@H](CO)[C@H](O)[C@@H]1O (stereo partly shown) [N-acetylgalactosamine] | increased |
| CC(=O)N[C@H]1C(O)O[C@H](CO)[C@@H](O)[C@@H]1O (stereo partly shown) [N-acetylglucosamine] | increased |
| C[C@H](O)[C@@H](O)[C@@H](O)[C@H](O)C=O [fucose] | increased |
| O=C[C@H](O)[C@@H](O)[C@@H](O)[C@H](O)CO [galactose] | increased |
